In one assay the test system is MDA-MB-231. Briefly: Cell proliferation inhibition assay (MTT). The conditions noted are these: Homo sapiens; MDA-MB-231; MTT, 72 hours; read-out: Proliferative inhibitory activity MDA-MB-231 (IC50 class). Type of assay: cell-based, human.
A further assay relates to MDA-MB-435. Description: Cell proliferation inhibition assay (MTT). The format is cell-based, human. The conditions noted are these: Homo sapiens; MDA-MB-435; MTT, 72 hours; read-out: Proliferative inhibitory activity MDA-MB-435 (IC50 class).
A further assay concerns the target c-Src(1-530) (Homo sapiens (Human), UniProt P12931). Briefly: Kinase inhibition assay (KinaseProfiler, 33P-ATP). The conditions noted are these: c-Src(1-530); ATP at Km.

SMILES strings stand for the structures.

Chain of c-Src(1-530) (P12931 whole entry, looked up): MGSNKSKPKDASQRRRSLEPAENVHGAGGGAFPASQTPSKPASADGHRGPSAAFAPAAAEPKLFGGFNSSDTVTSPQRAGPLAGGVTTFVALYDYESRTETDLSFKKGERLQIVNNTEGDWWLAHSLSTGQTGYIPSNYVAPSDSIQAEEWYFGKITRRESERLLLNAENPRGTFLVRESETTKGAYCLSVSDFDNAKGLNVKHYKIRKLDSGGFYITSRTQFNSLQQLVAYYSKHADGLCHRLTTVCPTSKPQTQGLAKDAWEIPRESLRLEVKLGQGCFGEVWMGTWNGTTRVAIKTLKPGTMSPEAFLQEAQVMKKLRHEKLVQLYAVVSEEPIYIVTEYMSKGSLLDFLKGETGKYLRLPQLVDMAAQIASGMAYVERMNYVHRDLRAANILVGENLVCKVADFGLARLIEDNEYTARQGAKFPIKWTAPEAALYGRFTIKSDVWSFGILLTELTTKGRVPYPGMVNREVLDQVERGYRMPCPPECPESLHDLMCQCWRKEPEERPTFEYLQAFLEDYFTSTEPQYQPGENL
Experimental for MDA-MB-231: (§1) The remaining cell lines were cultured in DMEM complete medium containing 10% fetal bovine serum (MV4-11 cells 20%), 100 U/ml penicillin, 100 μg/mL streptomycin at 5% CO2, and 37° C.
(§2) The cells were seeded in 96-well plates with 200 μL of cell suspension per well and incubated overnight in a cell culture medium with a cell concentration of 1˜2×10^4 cells/mL. The next day, the supernatant was discarded (the suspension cell was centrifuged before it) and the cells were treated with gradient concentrations of the test compound, respectively. At the same time, the drug-free negative control group and the equal volume of solvent control group, DMSO concentration of 0.1%, each dose group set up three wells, 37° C., 5% CO2 conditions. After 72 hours, add 20 μL of MTT reagent at a concentration of 5 mg/mL per well. After incubation for 2-4 h, the supernatant was discarded and 150 μL of DMSO was added to each well. […] Determine the absorbance (A) value (λ=570 nm, A value is proportional to the number of living cells), whichever is the average. […] The experiment was repeated at least 3 times. Experimental data were expressed as mean, data statistics using t test, P<0.05 for the difference was statistically significant. The inhibitory effects of the following compounds on cell proliferation were expressed as IC50 or inhibition rates.
Experimental for MDA-MB-435: as §1, §2

As to `Cc1ccc(C(=O)Nc2ccc(CN3CCN(C)CC3)c(C(F)(F)F)c2)cc1C#Cc1nn(C2CCC2)c2ncnc(N)c12` [Compound 6], the IC50 was < 100 nM in the assay with MDA-MB-231, < 100 nM with MDA-MB-435 and 9 nM against c-Src(1-530).
`Cc1ccc(C(=O)Nc2ccc(CN3CCN(C)CC3)c(C(F)(F)F)c2)cc1C#Cc1nn(C2CCCC2)c2ncnc(N)c12` [Compound 7]: the IC50 was < 100 nM in the assay with MDA-MB-231, < 100 nM in the assay with MDA-MB-435 and 19 nM against c-Src(1-530).
As to `Cc1ccc(C(=O)Nc2ccc(CN3CCN(C)CC3)c(C(F)(F)F)c2)cc1C#Cc1nn(C)c2ncnc(N)c12` [Compound 8], the IC50 with MDA-MB-231 was < 100 nM; with MDA-MB-435 it was < 100 nM; against c-Src(1-530), 7 nM.
Consider `CC(C)n1nc(C#Cc2cc(C(=O)Nc3ccc(CN4CCN(C)CC4)c(C(F)(F)F)c3)ccc2Cl)c2c(N)ncnc21` [Compound 9], for which the IC50 in the assay on MDA-MB-231 is 100 to 500 nM; with MDA-MB-435 it was < 100 nM; on c-Src(1-530), 15 nM.
Turning to `Cc1ccc(NC(=O)c2ccc(Cl)c(C(F)(F)F)c2)cc1C#Cc1nn([C@@H]2CCN(C(=O)[C@H](C)O)C2)c2ncnc(N)c12` [Compound 72], the IC50 in the assay with MDA-MB-231 was < 100 nM; in the assay with MDA-MB-435, > 1000 nM.
`Cc1ccc(NC(=O)c2ccc(Cl)c(C(F)(F)F)c2)cc1C#Cc1nn([C@@H]2CCN(C(=O)[C@@H](C)O)C2)c2ncnc(N)c12` [Compound 73]: the results for the IC50 in the assay on MDA-MB-231 and in the assay on MDA-MB-435 were < 100 nM and > 1000 nM, respectively.
Take `Cc1ccc(NC(=O)c2ccc(Cl)c(C(F)(F)F)c2)cc1C#Cc1nn(C2CCC(O)CC2)c2ncnc(N)c12` (stereo not drawn) [Compound 74]: the IC50 in the assay on MDA-MB-231 and in the assay on MDA-MB-435 was < 100 nM throughout.
Consider `Cc1ccc(NC(=O)c2ccc(Cl)c(C(F)(F)F)c2)cc1C#Cc1nn(CC2CCN(S(C)(=O)=O)CC2)c2ncnc(N)c12` [Compound 75], for which the IC50 in the assay on MDA-MB-231 was 100 to 500 nM; in the assay on MDA-MB-435 it was > 1000 nM.
With `Cc1ccc(NC(=O)c2ccc(Cl)c(C(F)(F)F)c2)cc1C#Cc1nn(CC2CCN(S(C)(=O)=O)C2)c2ncnc(N)c12` (stereo not drawn) [Compound 76], the IC50 in the assay on MDA-MB-231 was < 100 nM; in the assay with MDA-MB-435, 100 to 500 nM.
Consider `Cc1ccc(NC(=O)c2ccc(Cl)c(C(F)(F)F)c2)cc1C#Cc1nn(C2CCC2)c2ncnc(N)c12` [Compound 77], for which the IC50 with MDA-MB-231 was 500 to 1000 nM; in the assay on MDA-MB-435 it was > 1000 nM.
Consider `Cc1ccc(NC(=O)c2ccc(Cl)c(C(F)(F)F)c2)cc1C#Cc1nn(C2CCCC2)c2ncnc(N)c12` [Compound 78], for which the figures for the IC50 in the assay with MDA-MB-231 and with MDA-MB-435 were < 100 nM and 500 to 1000 nM, respectively.
With `Cc1ccc(NC(=O)c2ccc(Cl)c(C(F)(F)F)c2)cc1C#Cc1nn(CC2CCN(C)CC2)c2ncnc(N)c12` [Compound 79], the values for the IC50 with MDA-MB-231 and in the assay on MDA-MB-435 were < 100 nM and 500 to 1000 nM, respectively.
As for `Cc1ccc(NC(=O)c2ccc(Cl)c(C(F)(F)F)c2)cc1C#Cc1nn(CC(=O)N2CCOCC2)c2ncnc(N)c12` [Compound 80], the half-inhibitory concentration (IC50) is < 100 nM with MDA-MB-231 and > 1000 nM with MDA-MB-435.
With `Cc1ccc(NC(=O)c2ccc(Cl)c(C(F)(F)F)c2)cc1C#Cc1nn(C2CCN(S(C)(=O)=O)CC2)c2ncnc(N)c12` [Compound 81], the IC50 in the assay on MDA-MB-231 is < 100 nM; with MDA-MB-435, 100 to 500 nM.
For `Cc1ccc(NC(=O)c2ccc(Cl)c(C(F)(F)F)c2)cc1C#Cc1nn(C[C@@H](C)CO)c2ncnc(N)c12` [Compound 82], the values for the IC50 in the assay on MDA-MB-231 and in the assay with MDA-MB-435 were < 100 nM and 100 to 500 nM, respectively.
Consider `Cc1ccc(NC(=O)c2ccc(Cl)c(C(F)(F)F)c2)cc1C#Cc1nn(C[C@H](C)CO)c2ncnc(N)c12` [Compound 83], for which the IC50 is < 100 nM with MDA-MB-231 and 100 to 500 nM in the assay on MDA-MB-435.
Taken in the same sequence, the figures for `Cc1ccc(NC(=O)c2ccc(Cl)c(C(F)(F)F)c2)cc1C#Cc1nn([C@@H]2CCN(S(C)(=O)=O)C2)c2ncnc(N)c12` [Compound 84] were < 100 nM and 100 to 500 nM.
On the same counts, the results for `Cc1ccc(NC(=O)c2ccc(Cl)c(C(F)(F)F)c2)cc1C#Cc1nn([C@@H]2CCN(C)C2)c2ncnc(N)c12` [Compound 85] are < 100 nM and > 1000 nM.
On the same counts, the results for `Cc1ccc(NC(=O)c2ccc(Cl)c(C(F)(F)F)c2)cc1C#Cc1nn(C2CCCN(C(=O)[C@H](C)O)C2)c2ncnc(N)c12` (stereo partly drawn) [Compound 86] are < 100 nM and > 1000 nM.
In the case of `Cc1ccc(NC(=O)c2ccc(Cl)c(C(F)(F)F)c2)cc1C#Cc1nn(C2CCCN(C(=O)[C@@H](C)O)C2)c2ncnc(N)c12` (stereo partly drawn) [Compound 87], the IC50 is < 100 nM with MDA-MB-231 and > 1000 nM in the assay on MDA-MB-435.
Regarding `Cc1ccc(NC(=O)c2ccc(Cl)c(C(F)(F)F)c2)cc1C#Cc1nn([C@@H]2CCCN(C(=O)[C@@H](C)O)C2)c2ncnc(N)c12` [Compound 88], the IC50 in the assay on MDA-MB-231 was < 100 nM; in the assay with MDA-MB-435, 100 to 500 nM.
With `Cc1ccc(NC(=O)c2ccc(Cl)c(C(F)(F)F)c2)cc1C#Cc1nn([C@@H]2CCCN(C)C2)c2ncnc(N)c12` [Compound 89], the concentration for half-maximal inhibition (IC50) was < 100 nM with MDA-MB-231 and 100 to 500 nM in the assay with MDA-MB-435.
For the molecule `Cc1ccc(NC(=O)c2ccc(Cl)c(C(F)(F)F)c2)cc1C#Cc1nn([C@@H]2CCCN(S(C)(=O)=O)C2)c2ncnc(N)c12` [Compound 90], the IC50 with MDA-MB-231 was < 100 nM; with MDA-MB-435, 500 to 1000 nM.
Taken in the same sequence, the figures for `Cc1ccc(NC(=O)c2ccc(Cl)c(C(F)(F)F)c2)cc1C#Cc1nn(C2CCCN(S(C)(=O)=O)C2)c2ncnc(N)c12` (stereo not drawn) [Compound 91] were < 100 nM and 100 to 500 nM.
As for `Cc1ccc(NC(=O)c2ccc(Cl)c(C(F)(F)F)c2)cc1C#Cc1nn(C2CCCN(C)C2)c2ncnc(N)c12` (stereo not drawn) [Compound 92], the IC50 was < 100 nM in the assay with MDA-MB-231 and 100 to 500 nM in the assay on MDA-MB-435.
`Cc1ccc(NC(=O)c2nc(C(C)(C)C)cs2)cc1C#Cc1nn(CC2CCN(C)C2)c2ncnc(N)c12` (stereo not drawn) [Compound 94]: the IC50 with MDA-MB-231 and in the assay on MDA-MB-435 was 100 to 500 nM each time.
Turning to `Cc1ccc(NC(=O)c2nc(C(C)(C)C)cs2)cc1C#Cc1nn(C[C@@H](C)CO)c2ncnc(N)c12` [Compound 95], the IC50 with MDA-MB-231 is 100 to 500 nM; with MDA-MB-435, < 100 nM.
Consider `Cc1ccc(NC(=O)c2nc(C(C)(C)C)cs2)cc1C#Cc1nn(CC2CCN(C)CC2)c2ncnc(N)c12` [Compound 96], for which the IC50 in the assay with MDA-MB-231 and in the assay with MDA-MB-435 was 100 to 500 nM throughout.
In the case of `Cc1ccc(NC(=O)c2nc(C(C)(C)C)cs2)cc1C#Cc1nn([C@@H]2CCN(C)C2)c2ncnc(N)c12` [Compound 97], the IC50 with MDA-MB-231 and with MDA-MB-435 was 100 to 500 nM throughout.
Regarding `Cc1ccc(NC(=O)c2ccc(C)c(C(F)(F)F)c2)cc1C#Cc1nn(CC2CCN(C)C2)c2ncnc(N)c12` (stereo not drawn) [Compound 98], the IC50 in the assay on MDA-MB-231 and in the assay with MDA-MB-435 was < 100 nM in each case.
Consider `Cc1ccc(NC(=O)c2ccc(C)c(C(F)(F)F)c2)cc1C#Cc1nn(C[C@@H](C)CO)c2ncnc(N)c12` [Compound 99], for which the IC50 was < 100 nM in the assay on MDA-MB-231 and 100 to 500 nM with MDA-MB-435.
Taken in the same sequence, the figures for `Cc1ccc(NC(=O)c2cccc(C(F)(F)F)c2)cc1C#Cc1nn(C[C@@H](C)CO)c2ncnc(N)c12` [Compound 101] were < 100 nM and < 100 nM.
Taken in the same sequence, the figures for `CCn1nc(C#Cc2cc(NC(=O)c3ccc(CN4CCN(C)CC4)c(C(F)(F)F)c3)ccc2C)c2c(N)ncnc21` [Compound 102] were < 100 nM and < 100 nM.
With `Cc1ccc(C(=O)Nc2cccc(C(F)(F)F)c2)cc1C#Cc1nn([C@H]2CC[C@H](O)CC2)c2ncnc(N)c12` [Compound 103], the IC50 in the assay with MDA-MB-231 and in the assay with MDA-MB-435 was < 100 nM each time.
Regarding `CCNc1ncnc2c1c(C#Cc1cc(C(=O)Nc3cccc(C(F)(F)F)c3)ccc1C)nn2CC` [Compound 104], the IC50 in the assay with MDA-MB-231 and in the assay with MDA-MB-435 was 100 to 500 nM each time.
Consider `Cc1ccc(C(=O)Nc2cccc(C(F)(F)F)c2)cc1C#Cc1nn(C[C@@H](C)CO)c2ncnc(N)c12` [Compound 105], for which the concentration for half-maximal inhibition (IC50) in the assay on MDA-MB-231 was < 100 nM; in the assay on MDA-MB-435, 100 to 500 nM.
`Cc1ccc(C(=O)Nc2cccc(C(F)(F)F)c2)cc1C#Cc1nn(C[C@H](C)CO)c2ncnc(N)c12` [Compound 106]: the IC50 with MDA-MB-231 and in the assay with MDA-MB-435 was < 100 nM throughout.
For `Cc1ccc(C(=O)Nc2cccc(C(F)(F)F)c2)cc1C#Cc1nn([C@@H]2CCN(C)C2)c2ncnc(N)c12` [Compound 107], the IC50 in the assay on MDA-MB-231 and with MDA-MB-435 was < 100 nM each time.
Consider `Cc1ccc(C(=O)Nc2cccc(C(F)(F)F)c2)cc1C#Cc1nn(CC2CCN(C)C2)c2ncnc(N)c12` (stereo not drawn) [Compound 108], for which the results for the IC50 in the assay on MDA-MB-231 and with MDA-MB-435 were < 100 nM and 100 to 500 nM, respectively.
As to `Cc1ccc(C(=O)Nc2cccc(C(F)(F)F)c2)cc1C#Cc1nn(CC2CCN(C)CC2)c2ncnc(N)c12` [Compound 109], the IC50 with MDA-MB-231 and in the assay on MDA-MB-435 was < 100 nM in each case.
With `Cc1ccc(NC(=O)c2ccc(C)c(C(F)(F)F)c2)cc1C#Cc1nn(C[C@H](C)CO)c2ncnc(N)c12` [Compound 110], the IC50 in the assay on MDA-MB-231 and with MDA-MB-435 was < 100 nM each time.
With `Cc1ccc(NC(=O)c2cccc(C(F)(F)F)c2)cc1C#Cc1nn(C[C@H](C)CO)c2ncnc(N)c12` [Compound 111], the IC50 in the assay with MDA-MB-231 and with MDA-MB-435 was < 100 nM each time.
As for `Cc1ccc(NC(=O)c2ccc(C)c(C(F)(F)F)c2)cc1C#Cc1nn(CC2CCN(C)CC2)c2ncnc(N)c12` [Compound 115], the concentration for half-maximal inhibition (IC50) is < 100 nM in the assay on MDA-MB-231 and 100 to 500 nM with MDA-MB-435.
For `Cc1ccc(NC(=O)c2ccc(C)c(C(F)(F)F)c2)cc1C#Cc1nn([C@@H]2CCN(C)C2)c2ncnc(N)c12` [Compound 116], the IC50 with MDA-MB-231 and in the assay on MDA-MB-435 was 100 to 500 nM in each case.
For `Cc1ccc(NC(=O)c2cccc(C(C)(C)C)c2)cc1C#Cc1nn([C@H]2CC[C@H](O)CC2)c2ncnc(N)c12` [Compound 118], the IC50 with MDA-MB-231 and in the assay on MDA-MB-435 was < 100 nM in each case.
With `CCn1nc(C#Cc2cc(C(=O)Nc3cccc(C(F)(F)F)c3)ccc2C)c2c(N)ncnc21` [Compound 119], the IC50 in the assay with MDA-MB-231 and in the assay on MDA-MB-435 was 100 to 500 nM each time.

Source of the values: patent US10266537B2, “3-acetylenyl-pyrazole-pyrimidine derivative, and preparation method therefor and uses thereof” (Si Chuan University, priority 2015, dated 2019).
